Target: melatonin receptor
Test: Action of inhibiting 2-[^125 I]iodomelatonin binding
Design: species or system chicken (white leghorn)
Settings: forebrain membranes of 7-day-old chickens; 80 pM 2-[^125 I]iodomelatonin; 90 minutes at 25° C., pH 7.7; read-out: IC50, inhibition of 2-[^125 I]iodomelatonin binding
Protocol: The forebrains of 7-day-old chickens (white leghorn) were homogenized with ice-cooled assay-buffer (50 mM Tris-HCl, pH 7.7, at 25° C.) and centrifuged at 44,000×g for 10 minutes to give pellet. The pellet was washed once with the same buffer solution, which was further homogenized with the assay-buffer to make a protein concentration of 0.3-0.4 mg/mL. The homogenate was used as a membrane sample. In a test tube, the membrane sample and a ligand (80 pM 2-[^125 I]iodomelatonin,ca. 100,000 dpm) were mixed to make the whole volume 0.5 mL. The mixture was incubated for 90 minutes at 25° C., to which was added 3 mL of ice-cooled assay buffer, immediately followed vacuum filtration on Whatman GF/B which was further washed twice with 3 mL each of ice-cold assay buffer. The radioactivity on the filter was determined by means of gamma-counter. Specific binding was calculated by subtracting the non-specific binding which was determined in the presence of 10 μM melatonin. The 50% inhibiting concentration (IC50) was determined by the log-probit analysis.

COc1ccc2c(c1)C(CCNC(=O)C(F)(F)F)=C(c1ccccc1)C2 [Working Example 1, 2,2,2-Trifluoro-N-[2-(5-methoxy-2-phenyl-1H-inden-3-yl)ethyl]acetamide]
IC50: 0.087 nM
